Source: patent US20100249027A1, “CRF CONJUGATES WITH EXTENDED HALF-LIVES” (priority 2007, published 2010)
Read-outs that look alike come from different tables or passages of the source. Where no end group is shown, it is not given here.

How the values were obtained:
CRF R1 = target: T1, CRF R1 (Homo sapiens, UniProt P34998); settings: cited from earlier work
T1 sequence (P34998 24-415): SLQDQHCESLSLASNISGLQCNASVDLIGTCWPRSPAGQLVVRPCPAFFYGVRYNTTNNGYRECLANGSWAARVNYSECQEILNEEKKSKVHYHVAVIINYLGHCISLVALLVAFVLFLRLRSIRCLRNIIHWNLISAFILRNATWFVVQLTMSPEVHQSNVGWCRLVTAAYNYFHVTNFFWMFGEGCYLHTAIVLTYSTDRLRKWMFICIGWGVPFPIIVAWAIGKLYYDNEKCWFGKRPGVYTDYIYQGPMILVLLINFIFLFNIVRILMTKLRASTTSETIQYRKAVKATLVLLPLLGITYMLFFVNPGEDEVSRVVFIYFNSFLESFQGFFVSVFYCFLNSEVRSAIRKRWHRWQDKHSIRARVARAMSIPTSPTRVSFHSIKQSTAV

[1] = plasma concentration time profile of hCRF after single intravenous and single subcutaneous injection (ELISA); assay type: in vivo, Sprague-Dawley Crl:CD rats; settings: rat; for bioavailability: sc
Text: The objective of this study was to determine the plasma concentration time profile of hCRF following a single intravenous and a single subcutaneous injection in three groups of Sprague-Dawley Crl:CD® :R rats. […] For the intravenous portion of the study, each of the three dose groups consisted of 72 males. Each of these groups was divided into three sets of replicates. Seven days after the intravenous portion of the study, 61 of the 72 animals from each of the three dose groups were randomly selected for the subcutaneous portion of the study. Each dose group was divided into three sets of replicates. Blood samples were taken at multiple time points via orbital sinus bleeding. Following intravenous dosing, blood samples were collected at time points out to 24 hours post dose. Following subcutaneous dosing, blood samples were collected at time points out to 48 hours post dose. Blood samples were collected from three rats in each dose group for each time point. […] All of the surviving animals were euthanized on the third day following subcutaneous dosing.
Plasma samples were prepared and hCRF concentrations in the plasma samples were determine by an ELISA method. […] Pharmacokinetic analyses were conducted for this dose group using the limited data obtained.

III: CRF-related peptide Ucn III, also known as stresscopin (FTLSLDVPTNIMNLLFNIAKAKNLRAQAAANAHLMAQI; ends and bridges not checked; UniProt Q969E3 120-157, looked up)
affinity for the CRF R1 subtype (CRF R1): little affinity

CC[C@H](C)[C@H](NC(=O)[C@@H](NC(=O)[C@H](CCC(=O)O)NC(=O)[C@H](CCSC)NC(=O)[C@H](CC(C)C)NC(=O)[C@H](CCCCN)NC(=O)[C@H](CCCNC(=N)N)NC(=O)[C@H](CC(N)=O)NC(=O)[C@H](CO)NC(=O)[C@H](Cc1c[nH]cn1)NC(=O)[C@H](C)NC(=O)[C@H](CCC(N)=O)NC(=O)[C@H](CCC(N)=O)NC(=O)[C@H](C)NC(=O)[C@H](CC(C)C)NC(=O)[C@H](CCC(N)=O)NC(=O)[C@H](CCC(=O)O)NC(=O)[C@H](C)NC(=O)[C@H](CCCNC(=N)N)NC(=O)[C@H](C)NC(=O)[C@H](CCSC)NC(=O)[C@H](CCC(=O)O)NC(=O)[C@H](CC(C)C)NC(=O)[C@@H](NC(=O)[C@H](CCC(=O)O)NC(=O)[C@H](CCCNC(=N)N)NC(=O)[C@H](CC(C)C)NC(=O)[C@H](CC(C)C)NC(=O)[C@H](Cc1c[nH]cn1)NC(=O)[C@H](Cc1ccccc1)NC(=O)[C@@H](NC(=O)[C@H](CC(C)C)NC(=O)[C@H](CC(=O)O)NC(=O)[C@H](CC(C)C)NC(=O)[C@H](CO)NC(=O)[C@@H](NC(=O)[C@@H]1CCCN1C(=O)[C@@H]1CCCN1C(=O)[C@H](CCC(=O)O)NC(=O)[C@H](CCC(=O)O)NC(=O)[C@@H](N)CO)[C@@H](C)CC)[C@@H](C)O)C(C)C)[C@@H](C)CC)C(N)=O [hCRF]
AUC ([1]; in vivo, 10 ug/kg, IV): 5.5 ng·h/mL | Cmax ([1]; in vivo, 10 ug/kg, IV): 25.1 ± 3.8 ng/mL | clearance ([1]; in vivo, 10 ug/kg, IV): 30 ± 3.06 mL/min/kg | half-life ([1]; in vivo, 10 ug/kg, intravenous, 10 μg/kg, single exponential clearance, read-out: half-life): 9.2 min | AUC ([1]; in vivo, 100 ug/kg, IV): 516 ng·h/mL | Cmax ([1]; in vivo, 100 ug/kg, IV): 1040 ± 105 ng/mL | clearance ([1]; in vivo, 100 ug/kg, IV): 3.23 ± 0.26 mL/min/kg | AUC ([1]; in vivo, 100 ug/kg, SC): 214 ng·h/mL | Cmax ([1]; in vivo, 100 ug/kg, SC): 108 ± 16.7 ng/mL | half-life ([1]; in vivo, 100 ug/kg, intravenous, 100 μg/kg, single exponential clearance, read-out: half-life): 20.7 min | AUC ([1]; in vivo, 1000 ug/kg, SC): 1790 ng·h/mL | Cmax ([1]; in vivo, 1000 ug/kg, SC): 618 ± 78.9 ng/mL | bioavailability ([1]; in vivo, 100 ug/kg, subcutaneous): 41% | bioavailability ([1]; in vivo, subcutaneous, 1,000 μg/kg): 37% | AUC ([1]; in vivo, IV, 1,000 μg/kg): 4880 ng·h/mL | Cmax ([1]; in vivo, IV, 1,000 μg/kg): 7600 ± 488 ng/mL | clearance ([1]; in vivo, IV, 1,000 μg/kg): 3.42 ± 0.18 mL/min/kg | half-life ([1]; in vivo, intravenous, 1,000 μg/kg, single exponential clearance, read-out: half-life): 26.7 min | half-life ([1]; male, Sprague-Dawley Crl:CD, plasma, 100 ug/kg, SC, 100 μg/kg, read-out: t1/2β (terminal)): 62.6 ± 5.9 min | half-life ([1]; male, Sprague-Dawley Crl:CD, plasma, 1000 ug/kg, SC, 1000 μg/kg, read-out: t1/2β (terminal)): 72.1 ± 14.8 min | t1/2α ([1]; IV, 10 μg/kg): 9.22 ± 1.05 min | t1/2α ([1]; IV, 100 μg/kg): 20.71 ± 0.92 min | t1/2α ([1]; IV, 1,000 μg/kg): 26.69 ± 0.62 min | Bioavail. ([1]; SC, 100 μg/kg): 41 ± 6% | CL ([1]; SC, 100 μg/kg): 7.78 ± 1.01 mL/min/kg | t1/2α ([1]; SC, 100 μg/kg): 6.96 ± 3.44 min | Bioavail. ([1]; SC, 1000 μg/kg): 37 ± 5% | CL ([1]; SC, 1000 μg/kg): 9.30 ± 1.05 mL/min/kg | t1/2α ([1]; SC, 1000 μg/kg): 21.56 ± 8.15 min | dose proportionality of pharmacokinetics ([1]; intravenously or subcutaneously, between 100 and 1,000 μg/kg): dose proportional

Ucn II: CRF-related peptide urocortin II, 26% sequence homology to CRF (IVLSLDVPIGLLQILLEQARARAAREQATTNARILARVGHC; ends and bridges not checked; UniProt Q96RP3 72-112, looked up)
affinity for the CRF R1 subtype (CRF R1): little affinity
